We go through 21 compounds from patent US6943171B2, “Polycyclic guanine derivative phosphodiesterase V inhibitors” (Schering Corporation, priority 2001, dated 2005).

Where only a bound is given, the exact number is not on record here.

The experiment addresses PDE V isoenzyme (Homo sapiens, UniProt O76074). Put plainly: PDE V isoenzyme inhibition (PDE V IC50). The class given is biochemical. Conditions: bound printed as 'about <'. The text has this:
The compounds of the invention can be useful for inhibiting PDE V isoenzymes. Isoenzyme activity (potency) and isoenzyme selectivity for a compound can be evaluated in a number of ways. […] Similarly, an IC50 value may be obtained for other PDE isoenzymes, such as the PDE VI isoenzyme. Isoenzyme selectivity in this respect may be defined as the activity (potency) of a PDE inhibitor compound for a particular PDE isoenzyme as opposed to another PDE isoenzyme, for example, the activity of a compound to inhibit a PDE V isoenzyme compared to the activity of the same compound to inhibit a PDE VI isoenzyme.
The compound `CCN1C(=O)c2c(nc(OC)n2Cc2ccc(O)cc2)N2C[C@@H](Cc3ccccc3)N=C12` [Compound 8] registered an IC50 of less than 2.5 nM.
The same measure for `CCOc1nc2c(n1Cc1ccc(O)c(Cl)c1)C(=O)N(CC)C1=N[C@H](Cc3ccccc3)CN12` [Compound 16]: less than 1.6 nM.
In the case of `CCOc1nc2c(n1Cc1ccc(OC)c(Cl)c1)C(=O)N(CC)C1=N[C@H](Cc3ccccc3)CN12` [Compound 1], the IC50 is less than 2.2 nM.
Compound `CCN1C(=O)c2c(nc(Br)n2Cc2ccc(OC)c(Br)c2)N2C[C@@H](Cc3ccccc3)N=C12` [Compound 1.3.2] gave a concentration for half-maximal inhibition (IC50) of less than 4.1 nM.
Take `CCN1C(=O)c2c(nc(OC)n2Cc2ccc(O)c(Br)c2)N2C1=N[C@@H]1CCC[C@@H]12` [Compound 5]: the IC50 is less than 1.6 nM.
On to `CCN1C(=O)c2c(nc(OC)n2Cc2ccc(OC)c(Br)c2)N2C[C@@H](Cc3ccccc3)N=C12` [Compound 3], for which the IC50 was less than 4.1 nM.
Consider `CCOc1nc2c(n1Cc1ccc(O)c(Cl)c1)C(=O)N(CC)C1=N[C@H](C(C)C)CN12` [Compound 19], for which the IC50 was less than 4.1 nM.
Turning to `CCN1C(=O)c2c(nc(C(N)=O)n2Cc2ccc(O)c(Cl)c2)N2C[C@@H](Cc3ccccc3)N=C12` [Compound 10], the IC50 was less than 4.1 nM.
The compound `CCN1C(=O)c2c(nc(OC)n2Cc2ccc(OC)c(Cl)c2)N2C[C@@H](Cc3ccccc3)N=C12` [Compound 2] yielded an IC50 of less than 1.6 nM.
Compound `CCN1C(=O)c2c(nc(OC)n2Cc2ccc(O)c(Br)c2)N2C[C@@H](Cc3ccccc3)N=C12` [Compound 18] returned an IC50 of less than 1.6 nM.
The compound `CCN1C(=O)c2c(nc(Br)n2Cc2ccc(O)c(Cl)c2)N2C[C@@H](Cc3ccccc3)N=C12` [Compound 12] came in with an IC50 of less than 4.1 nM.
For `CCN1C(=O)c2c(nc(C(=O)NC)n2Cc2ccc(O)c(Cl)c2)N2C[C@@H](Cc3ccccc3)N=C12` [Compound 9], the IC50 was less than 4.1 nM.
In the case of `CCN1C(=O)c2c(nc(Br)n2Cc2ccc(O)c(Br)c2)N2C[C@@H](Cc3ccccc3)N=C12` [Compound 13], the IC50 is less than 4.1 nM.
The same measure for `CCN1C(=O)c2c(nc(Br)n2Cc2ccc(O)c(Br)c2)N2C1=N[C@@H]1CCC[C@@H]12` [Compound 4]: less than 1.6 nM; for `CCN1C(=O)c2c(nc(Br)n2Cc2ccc(O)c(Cl)c2)N2C[C@@H](Cc3ccc(F)cc3)N=C12` [Compound 21]: less than 2.2 nM.
The same measure for `CCN1C(=O)c2c(nc(Cl)n2Cc2ccc(O)cc2)N2C[C@@H](Cc3ccccc3)N=C12` [Compound 15]: less than 4.1 nM; for `CCN1C(=O)c2c(nc(OC)n2Cc2ccc(O)c(Cl)c2)N2C[C@@H](Cc3ccccc3)N=C12` [Compound 17]: less than 1.6 nM; for `CCN1C(=O)c2c(nc(Br)n2Cc2ccc(O)c(Br)c2)N2C[C@@H](Cc3cccc(F)c3)N=C12` [Compound 23]: less than 4.1 nM.
Compound `CCOc1nc2c(n1Cc1ccc(O)c(Br)c1)C(=O)N(CC)C1=N[C@H](Cc3ccccc3F)CN12` [Compound 22] registered an IC50 of less than 4.1 nM.
Turning to `CCN1C(=O)c2c(nc(C(=O)OC)n2Cc2ccc(O)c(Cl)c2)N2C[C@@H](Cc3ccccc3)N=C12` [Compound 11], the IC50 is less than 1.6 nM.
The same measure for `CCN1C(=O)c2c(nc(OC)n2Cc2ccc(O)c(Cl)c2)N2C1=N[C@@H]1CCC[C@@H]12` [Compound 6]: less than 4.1 nM.
